Laboratory results reported in article PMC9931769, “Bacterial origins of thymidylate metabolism in Asgard archaea and Eukarya” (Nature Communications, 2023).

T1: Psyn ThyX (Promethearchaeum syntrophicum, UniProt A0A5B9D7C8)
T1 sequence (A0A5B9D7C8 1-298): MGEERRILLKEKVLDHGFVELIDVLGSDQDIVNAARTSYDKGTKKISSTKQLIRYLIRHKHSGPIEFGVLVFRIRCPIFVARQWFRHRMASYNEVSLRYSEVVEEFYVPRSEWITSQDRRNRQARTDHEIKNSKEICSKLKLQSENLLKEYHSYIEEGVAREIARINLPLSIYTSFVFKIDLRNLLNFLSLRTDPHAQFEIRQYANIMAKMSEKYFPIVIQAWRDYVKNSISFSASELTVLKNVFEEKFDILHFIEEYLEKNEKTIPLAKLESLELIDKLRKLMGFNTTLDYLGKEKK

B1: Psyn ThyX (Promethearchaeum syntrophicum) (protein)
chain: T1 sequence (A0A5B9D7C8 1-298)

Experiments:
Psyn ThyX = target: T1, Psyn ThyX; assay: inhibition of NADPH oxidation, absorbance at […] nm; type: biochemical
purified protein = substrate: O=c1ccn([C@H]2C[C@H](O)[C@@H](COP(=O)(O)O)O2)c(=O)[nH]1; assay: purified protein; type: biochemical, Promethearchaeum syntrophicum; details: 50 mM sodium phosphate pH 8, 300 mM NaCl, 2 mM MgCl2, 50 μM FAD, 750 μM NADPH, 0.4 μM enzyme, 25 °C

Molecule	inhibition at 200 µM (Psyn ThyX)	Km (purified protein)
Nc1nc2c(c(=O)[nH]1)N1CN(c3ccc(C(=O)N[C@@H](CCC(=O)O)C(=O)O)cc3)C[C@H]1CN2 [CH2H4folate]	> 50%	
Nc1nc2c(c(=O)[nH]1)N[C@@H](CNc1ccc(C(=O)N[C@@H](CCC(=O)O)C(=O)O)cc1)CN2 [H4folate]	> 50%	
B1		0.235 ± 0.035 µM
